The target of one assay is CREBBP (Homo sapiens (Human), UniProt Q92793). Description: AlphaScreen in-vitro binding assay for CREBBP. Particulars: 324 nM His-CREBBP (1081-1197), acetyl-histone H4 (AcK 5, 8, 12) peptide. An outline of the steps: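 IC50 values were derived by non-linear regression of percent inhibition across 8 compound concentrations. Protein was His-tagged CREBBP bromodomain (1081-1197), peptide acetyl-histone H4 (AcK 5, 8, 12), in HEPES pH 7.5 buffer. Read-out was AlphaScreen with Ni-chelate acceptor and streptavidin donor beads, 35 min at 30° C then 60 min at RT.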
Sequence of CREBBP (Q92793 1081-1197): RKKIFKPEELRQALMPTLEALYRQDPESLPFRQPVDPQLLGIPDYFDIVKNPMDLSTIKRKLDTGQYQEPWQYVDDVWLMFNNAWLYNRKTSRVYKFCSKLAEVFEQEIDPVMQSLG

The target of a further assay is BRD2 (Homo sapiens (Human), UniProt P25440). In words: TR-FRET in-vitro binding assay for BRD2. Particulars: 45 nM His-Brd2(60-472), acetyl-histone H4 (AcK 5, 8, 12, 16) peptide. An outline of the steps:
(§1)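 Eight-point compound dilutions, delivered in 90% DMSO, were tested in a 13.55 μL final reaction. Reactions ran 35 minutes at 30° C before TR-FRET measurement.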

The test system of a further assay is THP-1. In words: Cell growth inhibition assay (CellTiter-Glo), THP-1. It counts as cell-based, human. As to conditions: THP-1 cells, 4 days; for GI50: Homo sapiens, 96 h, half-maximal growth inhibition; for THP-1 TGI: total growth inhibition. Summed up: (§2)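 Proliferation and viability are quantified by CellTiter-Glo after four days of incubation with serially diluted compound (maximum 10 μM). Four-parameter curve fitting gives IC50 and TGI.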
(ATP-based viability assays read luminescence as a measure of living cells.)

In a further assay the target is BRD4 (Homo sapiens (Human), UniProt O60885). In words: TR-FRET in-vitro binding assay for BRD4. Particulars: 45 nM His-Brd4(44-477), acetyl-histone H4 (AcK 5, 8, 12, 16) peptide. An outline of the steps: as §1
A general note: Time-resolved FRET reads energy transfer from a long-lived donor to a nearby acceptor.

In the next assay the target is BRD3 (Homo sapiens (Human), UniProt Q15059). In words: TR-FRET in-vitro binding assay for BRD3. As to conditions: 45 nM His-Brd3(20-477), acetyl-histone H4 (AcK 5, 8, 12, 16) peptide. An outline of the steps:
as §1

For another assay, the system named is K-562. In words: Cell growth inhibition assay (CellTiter-Glo), K-562. Particulars: K-562 cells, 4 days; for GI50: Homo sapiens, K562, 96 h, half-maximal growth inhibition; for K-562 TGI: total growth inhibition. It counts as cell-based, human. An outline of the steps: as §2
The next assay deals with MV-4-11. Description: Cell growth inhibition assay (CellTiter-Glo), MV-4-11. It counts as cell-based, human. Particulars: MV-4-11 cells, 4 days; for GI50: Homo sapiens, MV4-11, 96 h, half-maximal growth inhibition; for MV-4-11 TGI: total growth inhibition. An outline of the steps:
as §2

Sequence of BRD3 (Q15059 20-477): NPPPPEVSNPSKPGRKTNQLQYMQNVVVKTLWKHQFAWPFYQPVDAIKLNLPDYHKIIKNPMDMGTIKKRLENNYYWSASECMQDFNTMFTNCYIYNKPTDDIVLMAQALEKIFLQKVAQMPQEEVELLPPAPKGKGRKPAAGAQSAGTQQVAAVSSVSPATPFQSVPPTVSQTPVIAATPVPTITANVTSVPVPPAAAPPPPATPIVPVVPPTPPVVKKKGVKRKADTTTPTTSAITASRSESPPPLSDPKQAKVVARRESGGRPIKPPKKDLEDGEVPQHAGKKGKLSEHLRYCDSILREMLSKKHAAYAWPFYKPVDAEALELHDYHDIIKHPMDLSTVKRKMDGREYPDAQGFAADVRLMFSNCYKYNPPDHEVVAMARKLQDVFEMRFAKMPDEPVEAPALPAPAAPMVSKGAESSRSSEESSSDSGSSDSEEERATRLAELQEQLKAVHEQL
Sequence of BRD2 (P25440 60-472): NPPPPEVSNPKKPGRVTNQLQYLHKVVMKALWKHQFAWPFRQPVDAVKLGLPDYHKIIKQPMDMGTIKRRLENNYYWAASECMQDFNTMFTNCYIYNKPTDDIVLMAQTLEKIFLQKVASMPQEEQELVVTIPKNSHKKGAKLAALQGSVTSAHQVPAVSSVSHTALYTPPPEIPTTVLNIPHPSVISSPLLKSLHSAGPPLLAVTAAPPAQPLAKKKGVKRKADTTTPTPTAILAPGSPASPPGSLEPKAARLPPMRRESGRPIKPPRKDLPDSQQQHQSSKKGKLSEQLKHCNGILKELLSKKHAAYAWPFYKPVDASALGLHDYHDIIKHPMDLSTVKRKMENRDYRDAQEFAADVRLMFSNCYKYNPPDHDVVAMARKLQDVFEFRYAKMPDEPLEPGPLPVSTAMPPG

With `COc1ncccc1-c1cc2c(n1C)C(c1ccc(Cl)cc1)N(c1cc(C)c3nnc(C)n3c1)C2=O` (centres unmarked) [Example 30, 6-(4-chlorophenyl)-5-(3,8-dimethyl-[1,2,4]triazolo[4,3-a]pyridin-6-yl)-2-(2-methoxypyridin-3-yl)-1-methyl-5,6-dihydropyrrolo[3,4-b]pyrrol-4(1H)-one], the half-maximal inhibitory concentration (IC50) on CREBBP was determined as 1300 nM; at BRD2 it was 50 nM; on BRD4, 40 nM; on BRD3, 47 nM. Moreover, the GI50 is 19.8 nM in the assay with THP-1, 57.2 nM in the assay on K-562 and 11.2 nM in the assay on MV-4-11. Besides, the “THP-1 TGI” value in the assay with THP-1 was 39.05 nM. Further, the “K-562 TGI” value in the assay on K-562 is more than 10000 nM. In the assay on MV-4-11, the “MV-4-11 TGI” value stood at 21.3 nM.
Regarding `Cc1cc(N2C(=O)c3cc(C4=CCOCC4)n(C)c3C2c2ccc(Cl)cc2)cn2c(C)nnc12` (centres unmarked) [Example 31, 6-(4-chlorophenyl)-2-(3,6-dihydro-2H-pyran-4-yl)-5-(3,8-dimethyl-[1,2,4]triazolo[4,3-a]pyridin-6-yl)-1-methyl-5,6-dihydropyrrolo[3,4-b]pyrrol-4(1H)-one], the IC50 was found to be 3100 nM on CREBBP, 62 nM at BRD2, 36 nM at BRD4 and 47 nM on BRD3. The values for the GI50 with THP-1, in the assay on K-562 and in the assay with MV-4-11 were 30.9 nM, 57.2 nM and 13.3 nM, respectively. Also, in the assay with THP-1, the “THP-1 TGI” value was 52.5 nM. In the assay on K-562, the “K-562 TGI” value is more than 10000 nM. Besides, the “MV-4-11 TGI” value in the assay with MV-4-11 was determined as 23.7 nM.
For the compound `Cc1cn(C)c2c1C(=O)N(c1cc(C)c3nnn(C)c3n1)C2c1ccc(Cl)cc1` (centres unmarked) [Example 32, 6-(4-chlorophenyl)-5-(3,7-dimethyl-3H-[1,2,3]triazolo[4,5-b]pyridin-5-yl)-1,3-dimethyl-5,6-dihydropyrrolo[3,4-b]pyrrol-4(1H)-one], the IC50 is more than 37000 nM on CREBBP, 160 nM at BRD2, 110 nM at BRD4 and 100 nM at BRD3. The GI50 amounted to 174 nM in the assay with THP-1, 430 nM in the assay with K-562 and 111 nM in the assay on MV-4-11. For the same compound, the “THP-1 TGI” value in the assay with THP-1 came out at 343 nM. In addition, in the assay with K-562, the “K-562 TGI” value is more than 10000 nM. For the same compound, in the assay with MV-4-11, the “MV-4-11 TGI” value came to 203.5 nM.
As for `Cc1cc(N2C(=O)c3c(C4CC4)cn(C)c3C2c2ccc(Cl)cc2)cn(C)c1=O` (centres unmarked) [Example 37, 6-(4-chlorophenyl)-3-cyclopropyl-5-(1,5-dimethyl-6-oxo-1,6-dihydropyridin-3-yl)-1-methyl-5,6-dihydropyrrolo[3,4-b]pyrrol-4(1H)-one], the IC50 on CREBBP was found to be 1900 nM; on BRD2, 38 nM; at BRD4 it was 37 nM; at BRD3, 32 nM. In addition, the GI50 came to 44.9 nM in the assay with THP-1, 180 nM in the assay with K-562 and 21.3 nM in the assay on MV-4-11. Further, the “THP-1 TGI” value in the assay on THP-1 was found to be 98.15 nM. Further, the “K-562 TGI” value in the assay on K-562 was more than 10000 nM. Besides, the “MV-4-11 TGI” value in the assay on MV-4-11 amounted to 38.55 nM.
`COc1nccc(-c2cc3c(n2C)C(c2ccc(Cl)cc2)N(c2cc(Cl)c(=O)n(C)c2)C3=O)n1` (centres unmarked) [Example 39, 5-(5-chloro-1-methyl-6-oxo-1,6-dihydropyridin-3-yl)-6-(4-chlorophenyl)-2-(2-methoxypyrimidin-4-yl)-1-methyl-5,6-dihydropyrrolo[3,4-b]pyrrol-4(1H)-one]: the IC50 at CREBBP was 1200 nM; on BRD2, 280 nM; at BRD4 it was 305 nM; at BRD3, 220 nM. Moreover, the values for the GI50 with THP-1, in the assay with K-562 and in the assay with MV-4-11 were 128 nM, 550 nM and 78.6 nM, respectively. Further, the “THP-1 TGI” value in the assay with THP-1 came out at 238 nM. Besides, the “K-562 TGI” value in the assay on K-562 was more than 10000 nM. Moreover, the “MV-4-11 TGI” value in the assay on MV-4-11 was 105 nM.
With `COc1ncc(-c2cc3c(n2C)C(c2ccc(Cl)cc2)N(c2cc(Cl)c(=O)n(C)c2)C3=O)cn1` (centres unmarked) [Example 40, 5-(5-chloro-1-methyl-6-oxo-1,6-dihydropyridin-3-yl)-6-(4-chlorophenyl)-2-(2-methoxypyrimidin-5-yl)-1-methyl-5,6-dihydropyrrolo[3,4-b]pyrrol-4(1H)-one], the IC50 at CREBBP amounted to 365 nM; at BRD2, 72.5 nM; on BRD4 it was 78 nM; at BRD3 it was 54 nM. Moreover, the values for the GI50 in the assay on THP-1, with K-562 and in the assay on MV-4-11 were 91.9 nM, 326 nM and 83.9 nM, respectively. Besides, the “THP-1 TGI” value with THP-1 came to 137 nM. Further, in the assay on K-562, the “K-562 TGI” value was more than 10000 nM. For the same compound, the “MV-4-11 TGI” value in the assay on MV-4-11 stood at 127 nM.
As for `Cn1c(-c2ccn(C)c(=O)c2)cc2c1C(c1ccc(Cl)cc1)N(c1cc(Cl)c(=O)n(C)c1)C2=O` (centres unmarked) [Example 41, 5-(5-chloro-1-methyl-6-oxo-1,6-dihydropyridin-3-yl)-6-(4-chlorophenyl)-1-methyl-2-(1-methyl-2-oxo-1,2-dihydropyridin-4-yl)-5,6-dihydropyrrolo[3,4-b]pyrrol-4(1H)-one], the IC50 came out at 535 nM on CREBBP, 83 nM at BRD2, 85 nM on BRD4 and 65.5 nM at BRD3. Also, the GI50 in the assay with THP-1 was 167 nM; in the assay with K-562, 517 nM; in the assay with MV-4-11, 78.7 nM. The “THP-1 TGI” value in the assay with THP-1 was found to be 307 nM. In addition, in the assay with K-562, the “K-562 TGI” value was more than 10000 nM. The “MV-4-11 TGI” value with MV-4-11 turned out to be 128 nM.
Consider `Cn1c(-c2cccn(C)c2=O)cc2c1C(c1ccc(Cl)cc1)N(c1cc(Cl)c(=O)n(C)c1)C2=O` (centres unmarked) [Example 43, 5-(5-chloro-1-methyl-6-oxo-1,6-dihydropyridin-3-yl)-6-(4-chlorophenyl)-1-methyl-2-(1-methyl-2-oxo-1,2-dihydropyridin-3-yl)-5,6-dihydropyrrolo[3,4-b]pyrrol-4(1H)-one], for which the IC50 on CREBBP was 690 nM; at BRD2, 90 nM; on BRD4 it was 120 nM; on BRD3 it was 77 nM. In addition, the figures for the concentration for 50% growth inhibition (GI50) with THP-1, with K-562 and in the assay on MV-4-11 were 276 nM, 934 nM and 183 nM, respectively. Besides, the “THP-1 TGI” value with THP-1 is 492 nM. Moreover, in the assay on K-562, the “K-562 TGI” value is more than 10000 nM. The “MV-4-11 TGI” value in the assay on MV-4-11 came to 310 nM.
On to `Cn1c(-c2cccc(=O)n2C)cc2c1C(c1ccc(Cl)cc1)N(c1cc(Cl)c(=O)n(C)c1)C2=O` (centres unmarked) [Example 44, 5-(5-chloro-1-methyl-6-oxo-1,6-dihydropyridin-3-yl)-6-(4-chlorophenyl)-1-methyl-2-(1-methyl-6-oxo-1,6-dihydropyridin-2-yl)-5,6-dihydropyrrolo[3,4-b]pyrrol-4(1H)-one], for which the concentration for half-maximal inhibition (IC50) at CREBBP worked out at 310 nM; on BRD2, 54 nM; at BRD4 it was 66 nM; on BRD3, 41 nM. The GI50 in the assay on THP-1 stood at 1420 nM; in the assay with K-562, 2590 nM; with MV-4-11, 264 nM. Also, the “THP-1 TGI” value in the assay on THP-1 is 2700 nM. Moreover, the “K-562 TGI” value with K-562 is more than 10000 nM. Also, the “MV-4-11 TGI” value with MV-4-11 is 391 nM.
For `Cc1cc(N2C(=O)c3cc(-c4ccc(=O)n(C)c4)n(C)c3C2c2ccc(Cl)cc2)cn(C)c1=O` (centres unmarked) [Example 46, 6-(4-chlorophenyl)-5-(1,5-dimethyl-6-oxo-1,6-dihydropyridin-3-yl)-1-methyl-2-(1-methyl-6-oxo-1,6-dihydropyridin-3-yl)-5,6-dihydropyrrolo[3,4-b]pyrrol-4(1H)-one], the IC50 on CREBBP was determined as 280 nM; on BRD2, 19 nM; on BRD4 it was 14 nM; on BRD3, 16 nM. Further, the values for the GI50 in the assay on THP-1, with K-562 and in the assay with MV-4-11 were 525 nM, 1600 nM and 165 nM, respectively. The “THP-1 TGI” value with THP-1 is 1070 nM. Further, in the assay on K-562, the “K-562 TGI” value is more than 10000 nM. Also, the “MV-4-11 TGI” value in the assay on MV-4-11 was 292 nM.
Take `Cc1cc(N2C(=O)c3cc(-c4cccn(C)c4=O)n(C)c3C2c2ccc(Cl)cc2)cn(C)c1=O` (centres unmarked) [Example 47, 6-(4-chlorophenyl)-5-(1,5-dimethyl-6-oxo-1,6-dihydropyridin-3-yl)-1-methyl-2-(1-methyl-2-oxo-1,2-dihydropyridin-3-yl)-5,6-dihydropyrrolo[3,4-b]pyrrol-4(1H)-one]: the IC50 on CREBBP is 690 nM; at BRD2, 110 nM; on BRD4 it was 140 nM; at BRD3, 82 nM. Besides, the GI50 in the assay on THP-1 amounted to 195 nM; in the assay with K-562 it was 698 nM; in the assay on MV-4-11 it was 98.4 nM. For the same compound, in the assay with THP-1, the “THP-1 TGI” value was found to be 351 nM. Further, the “K-562 TGI” value in the assay with K-562 was more than 10000 nM. For the same compound, the “MV-4-11 TGI” value in the assay on MV-4-11 turned out to be 156 nM.

What is called IC50 is the concentration at which inhibition is half-maximal. For orientation: GI50 means the concentration giving 50% growth inhibition. A high value points to less potent growth inhibition.
